Key:
[1] = system: human hepatoma cells (HepG2); experiment: tumor cell proliferation inhibition test, MTT method, HepG2; type: cell-based; details: 48 hours treatment, read-out: Half Inhibitory Concentration IC50 HepG2
Experimental: (§1) The compounds of the present invention were subjected to tumor cell proliferation inhibition test, and conventional MTT method was used.
(§2) Cell lines: human hepatoma cells (HepG2), human lung cancer cells (A-549), human gastric cancer cells (SGC-7901). The culture medium was DMEM+15% NBS+double antibody.
(§3) Sample solution preparation: after dissolving with DMSO (Merck), PBS (−) was added to obtain 100 μmol/L solution or homogeneous suspension. The solution was diluted with PBS (−) in DMSO to a final concentration of 0.1, 1, 10, 20, 40, 60, 80, 100 μmol/L.
(§4) Gossypol was used as control solution, prepared under the same condition.
(§5) Cell culture: adherent growth Tumor cells were cultured in 1640 medium containing 10% inactivated neonatal bovine serum and penicillin, streptomycin (1 million U/L), placed in carbon dioxide incubator at 37° C., 5% CO2, and saturated humidity. Cells were treated serially passaged 2-3 times. The first culture was washed with PBS 2 times, and digested with trypsin. Fresh culture medium was added evenly, cells were adjusted to a appropriate concentration and transferred into a new culture flask. Cell in an exponential phase were chosen for the tests.
(§6) Experimental Principle: Living cells mitochondria in the dehydrogenase can reduce yellow MTT to water-insoluble blue-violet product MT (MTT formazan), deposited in the cells. The amount of production is proportional to the number of living cells. […] DMSO can dissolve blue violet crystals, and the color depth is proportional to the amount contained, so the absorbance measured by the microplate reader can reflect the cell viability.
(§7) Methods: The exponential phase cells were digested and counted and seeded in 96-well plates at a density of 2×10^4/mL at 100 μl per well. After 24 hours of incubation, the cells to be tested were treated with 0.1, 1, 10, 20, 40, 60, 80, 100 μmol/L of the compounds. Each experimental group had 5 wells in each concentration, and the culture medium containing 0.4% DMSO was used as control. After 48 hours, the supernatant was discarded, and 100 μl of MTT ((2-(4,5-dimethyl-2-thiazolyl)-3,5-diphenyl-2H-tetrazole hydrobromide) (1 mg/mL) was added to each well. After another 4 hours, the supernatant was discarded, and 100 μl of DMSO was added to each well. After mixing, the absorbance was measured at 570 nm using a microplate reader. An IC50 calculation software was used to determine the half inhibitory concentration (IC50).

[2] = system: human lung cancer cells (A-549); experiment: tumor cell proliferation inhibition test, MTT method, A-549; type: cell-based; details: A549 cells, 48 hours treatment, read-out: Half Inhibitory Concentration IC50 A549
Experimental: as §1, §2, §3, §4, §5, §6, §7

[3] = system: human gastric cancer cells (SGC-7901); experiment: tumor cell proliferation inhibition test, MTT method, SGC-7901; type: cell-based; details: SGC-7901 cells, 48 hours treatment, read-out: Half Inhibitory Concentration IC50 SGC-7901
Experimental: as §1, §2, §3, §4, §5, §6, §7

[4] = system: HepG2, A-549, SGC-7901 tumor cells; experiment: anti-tumor activity test, MTT method, summary over the three cell lines tested; type: cell-based, human
Experimental: as §1, §2, §3, §4
as §5, with “Cell in an exponential phase were chosen for the tests.” left out
as §6, with “the” for “the cells. The amount of production is proportional to the number of living”
as §7, with “After 24 hours of incubation, the cells to be tested were treated with 0.1, 1, 10, 20, 40, 60, 80, 100 μmol/L of the compounds. Each experimental group had 5 wells in each concentration, and the culture medium containing 0.4% DMSO was used as control.” left out

| IC50 [1] [µM] | IC50 [2] [µM] | IC50 [3] [µM] | melting point [°C] | SMILES | antitumor activities (in words) [4] |
| --- | --- | --- | --- | --- | --- |
| > 100 | > 100 | > 100 | 204.3 | Cc1cc2c(C(C)C)c(O)c(O)c(/C=N/N=C3\C(=O)N(C)c4ccc(Cl)cc43)c2c(O)c1-c1c(C)cc2c(C(C)C)c(O)c(O)c(/C=N/N=C3/C(=O)N(C)c4ccc(Cl)cc43)c2c1O [Compound 4, (3Z,3′E)-3,3′-(((1E, 1′E)-(1,1′,6,6′,7,7′-hexahydroxy-5,5′-diisopropyl-3,3′-dimethyl-[2,2′-binaphthalene]-8,8′-diyl)bis(methanylylidene))bis(hydrazine-2,1-diylidene))bis(5-chloro-1-methylindolin-2-one)] | – |
| 8.92 ± 0.59 | 19.3 ± 1.62 | 13.7 ± 1.11 | – | CCN1C(=O)/C(=N\N=C\c2c(O)c(O)c(C(C)C)c3cc(C)c(-c4c(C)cc5c(C(C)C)c(O)c(O)c(/C=N/N=C6/C(=O)N(CC)c7ccc(Cl)cc76)c5c4O)c(O)c23)c2cc(Cl)ccc21 [Compound 5, (3Z,3′E)-3,3′-(((1E, 1′E)-(1,1′,6,6′,7,7′-hexahydroxy-5,5′-diisopropyl-3,3′-dimethyl-[2,2′-binaphthalene]-8,8′-diyl)bis(methanylylidene))bis(hydrazine-2,1-diylidene))bis(5-chloro-1-ethylindolin-2-one)] | good activities |
| > 100 | 66.5 ± 2.53 | > 100 | 216.3 | Cc1cc2c(C(C)C)c(O)c(O)c(/C=N/N=C3\C(=O)N(C(C)C)c4ccc(Cl)cc43)c2c(O)c1-c1c(C)cc2c(C(C)C)c(O)c(O)c(/C=N/N=C3/C(=O)N(C(C)C)c4ccc(Cl)cc43)c2c1O [Compound 6, (3Z,3′E)-3,3′-(((1E,1′E)-(1,1′,6,6′,7,7′-hexahydroxy-5,5′-diisopropyl-3,3′-dimethyl-[2,2′-binaphthalene]-8,8′-diyl)bis(methanylylidene))bis(hydrazine-2,1-diylidene))bis(5-chloro-1-isopropylindolin-2-one)] | – |

Continued, compound first:

| SMILES | IC50 [1] [µM] | IC50 [2] [µM] | IC50 [3] [µM] | melting point [°C] | antitumor activities (in words) [4] |
| --- | --- | --- | --- | --- | --- |
| Cc1ccc2c(c1)/C(=N/N=C/c1c(O)c(O)c(C(C)C)c3cc(C)c(-c4c(C)cc5c(C(C)C)c(O)c(O)c(/C=N/N=C6/C(=O)Nc7ccc(C)cc76)c5c4O)c(O)c13)C(=O)N2 [Compound 1, (3Z,3′E)-3,3′-(((1E,1′E)-(1,1′,6,6′,7,7′-hexahydroxy-5,5′-diisopropyl-3,3′-dimethyl-[2,2′-binaphthalene]-8,8′-diyl)bis(methanylylidene))bis(hydrazine-2,1-diylidene))bis(5-methylindolin-2-one)] | > 100 | > 100 | > 100 | 187.5 | – |
| Cc1cc2c(C(C)C)c(O)c(O)c(/C=N/N=C3\C(=O)Nc4ccc(Cl)cc43)c2c(O)c1-c1c(C)cc2c(C(C)C)c(O)c(O)c(/C=N/N=C3/C(=O)Nc4ccc(Cl)cc43)c2c1O [Compound 2, (3Z,3′E)-3,3′-(((1E,1′E)-(1,1′,6,6′,7,7′-hexahydroxy-5,5′-diisopropyl-3,3′-dimethyl-[2,2′-binaphthalene]-8,8′-diyl)bis(methanylylidene))bis(hydrazine-2,1-diylidene))bis(5-chloroindolin-2-one)] | 29.4 ± 2.1 | 68.3 ± 2.15 | > 100 | 190.7 | – |
| Cc1cc2c(C(C)C)c(O)c(O)c(/C=N/N=C3\C(=O)N(C)c4ccccc43)c2c(O)c1-c1c(C)cc2c(C(C)C)c(O)c(O)c(/C=N/N=C3/C(=O)N(C)c4ccccc43)c2c1O [Compound 3, (3Z,3′E)-3,3′-(((1E, 1′E)-(1,1′,6,6′,7,7′-hexahydroxy-5,5′-diisopropyl-3,3′-dimethyl-[2,2′-binaphthalene]-8,8′-diyl)bis(methanylylidene))bis(hydrazine-2,1-diylidene))bis(1-methylindolin-2-one)] | 8.67 ± 0.74 | 7.87 ± 0.91 | 16.6 ± 1.46 | – | excellent antitumor activities |
| Cc1cc2c(C(C)C)c(O)c(O)c(/C=N/N=C3\C(=O)N(Cc4ccccc4)c4ccc(Cl)cc43)c2c(O)c1-c1c(C)cc2c(C(C)C)c(O)c(O)c(/C=N/N=C3/C(=O)N(Cc4ccccc4)c4ccc(Cl)cc43)c2c1O [Compound 7, (3Z,3′E)-3,3′-(((1E, 1′E)-(1,1′,6,6′,7,7′-hexahydroxy-5,5′-diisopropyl-3,3′-dimethyl-[2,2′-binaphthalene]-8,8′-diyl)bis(methanylylidene))bis(hydrazine-2,1-diylidene))bis(1-benzyl-5-chloroindolin-2-one)] | 14.7 ± 1.12 | 16.3 ± 1.21 | 12.5 ± 1.93 | – | good activities |
| Cc1cc2c(C(C)C)c(O)c(O)c(/C=N/N=C3\C(=O)N(Cc4ccccc4)c4ccccc43)c2c(O)c1-c1c(C)cc2c(C(C)C)c(O)c(O)c(/C=N/N=C3/C(=O)N(Cc4ccccc4)c4ccccc43)c2c1O [Compound 8, (3Z,3′E)-3,3′-(((1E, 1′E)-(1,1′,6,6′,7,7′-hexahydroxy-5,5′-diisopropyl-3,3′-dimethyl-[2,2′-binaphthalene]-8,8′-diyl)bis(methanylylidene))bis(hydrazine-2,1-diylidene))bis(1-benzylindolin-2-one)] | > 100 | > 100 | 88.8 ± 3.02 | 219.9 | – |

From US10729675B2, “Gossypol isatin schiff base compounds with antitumor activities and a method of preparing the same” (SHAANXI UNIVERSITY OF SCIENCE AND TECHNOLOGY, priority 2018, dated 2020)
